Assay results published in patent US8178688B2, “Benzamidine derivatives, process for the preparation thereof and pharmaceutical composition comprising the same” (Dong Wha Pharmaceutical Co., Ltd., priority 2004, dated 2012).
Read-outs that look alike come from different tables or passages of the source.

How the values were obtained:
[1] = tested on: osteoclast differentiation; test: Inhibitory effects on osteoclast differentiation (co-culture of bone marrow cells with osteoblast, TRAP staining); assay type: cell-based, mice; settings: co-culture of bone marrow cells and osteoblast, 7 days, TRAP-positive osteoclasts versus controls; for inhibition at 1 µM: Mus musculus, Osteoclast, 168 h, read-out: % inhibitory activity on osteoclastogenesis
Method in brief: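 Percent inhibition versus control is based on microscope counts of TRAP-positive osteoclasts (3 or more nuclei) after 7 days of compound exposure. Cultures paired ddY mouse marrow cells with ICR calvarial osteoblasts, driven by dexamethasone 10^−7M plus vitamin D3 10^−8M, with medium and compound changed every 2–3 days.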

cells = test: Cytotoxicity test (MTT); assay type: cell-based; settings: 10^−6M, 72 hrs, compared with the control group
Method in brief: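 Benzamidine derivatives were checked for cytotoxicity with an MTT assay. Test substances were diluted in a suitable solvent to 10^−2M. Cells were seeded at 1×10^4 cell/100 μL per well in 96-well microplates and grown for 72 hrs. During the final 4 hrs, 25 μL of MTT (2 mg/mL in PBS) was added. Plates were then centrifuged, the medium removed, formazan dissolved in 100 μL DMSO, and absorbance read at 540 nm.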

osteoblast = test: Effect on bone formation (osteoblast nodule mineralization, Alizarin red S); assay type: cell-based, ICR mice; settings: calvarial osteoblast in osteogenic differentiation medium
Protocol: The osteoblast, treated in this experiment, was prepared from the osteoblast as prepared in the above.
The osteoblast, isolated from sequential enzymatic treatment of calvariae from neonated ICR mice, was cultured in α-MEM medium containing 10% FBS for 4˜5 days. The osteoblast was also cultured for 24 hr after seeding the cells on a 12 well plate (10^5 cell/well), and medium was exchanged with the osteogenic differentiation medium containing 10 mM β-glycerophosphate and 50 μg/ml ascorbic acid.
The test substances at the concentration of 0.1 uM and 0.1 nM were added to the above medium for evaluating the effect promoting bone formation. The differentiation medium containing the test substances was exchanged every 3 or 4 days for 14 to 21 days until confirming the nodule mineralization.
The cell was rinsed twice with distilled water, and fixed by the 10% formalin solutions for 30 minutes. Alizarin red S and Von-kossa Solution were treated on the plate for measuring deposited calcium and phosphate in cell matrix, and the activity of the test substances on the bone formation was analyzed by determining stained area.
Additionally, for the purpose of estimating quantitative Arizarin red S in cell matrix, stained Arizarin red S was extracted by treating 10 mM sodium phosphate solution (pH 7.0), containing 10% cetylpyridinium chloride, for 15˜30 minutes in the shaking incubator, and then the amount of the deposited calcium was estimated by calculating the absorbance of the extracted Arizarin red S at 564 nm. […]

| SMILES | melting point [°C] | inhibition at 1 µM ([1]; 1 μm) [%] | Survival rates of the cells (cells; MC3T3-E1 cells) [%] | Survival rates of the cells (cells; ST2 cells) [%] | bone forming activity (%) (osteoblast; 0.1 nM) | bone forming activity (%) (osteoblast; 0.1 μM) | % inhibitory activity on osteoclastogenesis ([1]; 1 μm) [%] | inhibition at 1 µM ([1]; 1 m) [%] |
| --- | --- | --- | --- | --- | --- | --- | --- | --- |
| Cc1sc(-c2cccnc2)nc1-c1ccc(OCCCCCOc2ccc(C(=N)NO)cc2)cc1 [Example 13, N-hydroxy-4-(5-[4-(5-methyl-2-pyridin-3-yl-1,3-thiazol-4-yl)phenoxy]pentoxy)-benzamidine] | 138 to 150 | 73.5 | – | – | – | – | – | – |
| CC(C)c1nc(-c2ccc(OCCCCCOc3ccc(C(=N)NO)cc3)cc2)c(CC2CCCC2)s1 [Example 47, N-hydroxy-4-(5-[4-(5-cyclopentylnnethyl-2-isopropyl-1,3-thiazol-4-yl)phenoxy]pentoxy)-benzamidine] | – | – | 54.2 | 24.0 | 9.4 | 11.31 | 90.0 | – |
| CCCN(CCC)c1nc(-c2ccc(OCCCCCOc3ccc(C(=N)NO)cc3)cc2)c(CC)s1 [Example 138, N-hydroxy-4-(5-[4-(2-dipropylamino-5-ethyl-1,3-thiazol-4-yl)phenoxy]pentoxy)-benzamidine] | – | – | – | – | 8.81 | 6.32 | – | 91 |
